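Briefly, cells in 96-well plates were exposed to five compound concentrations for 48 h, and endpoints were estimated by linear interpolation. The concentration for 50% growth inhibition is given as GI50.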 Activity calls are given as the source filed them. Rule as the data show it: active = GI50 up to about 1.1 µM and inactive = higher.
Tests used:
Test in all cases: inhibition of tumour cell growth, NCI panel, 48 h
SF-539 = system: SF-539
A498 = system: A498
NCI-H460 = system: NCI-H460
HCT-15 = system: HCT-15
CCRF-CEM = system: CCRF-CEM
SF-295 = system: SF-295
NCI-H522 = system: NCI-H522
SK-OV-3 = system: SK-OV-3
ACHN = system: ACHN
HT-29 = system: HT-29
SNB-75 = system: SNB-75
RXF 393 = system: RXF 393
UO-31 = system: UO-31
K562 = system: K562
U-251 = system: U-251
HCT-116 = system: HCT-116
Hs-578T = system: Hs-578T
MDA-MB-231 = system: MDA-MB-231
MDA-N = system: MDA-N

Structure (SMILES) | GI50 (SF-539) | GI50 (A498) | GI50 (NCI-H460) | GI50 (HCT-15) [µM] | GI50 (CCRF-CEM) | GI50 (SF-295) | GI50 (NCI-H522) | GI50 (SK-OV-3) | GI50 (ACHN) | GI50 (HT-29) | GI50 (SNB-75) | GI50 (RXF 393) | GI50 (UO-31) | GI50 (K562) | GI50 (U-251) | GI50 (HCT-116) | GI50 (Hs-578T) | GI50 (MDA-MB-231) | GI50 (MDA-N)
N#C/C(=C1\SC(/N=N/c2ccc(Cl)cc2)C(=O)N1c1ccccc1)c1nc2ccccc2[nH]1 (stereo not given) | 32.4 µM (inactive) | 29.7 µM (inactive) | 33.7 µM (inactive) | 65.8 | 16.9 µM (inactive) | 18.5 µM (inactive) | 23.8 µM (inactive) | 15.5 µM (inactive) | 25.5 µM (inactive) | 63.8 µM (inactive) | 25.9 µM (inactive) | 36.6 µM (inactive) | 19.8 µM (inactive) | 14.1 µM (inactive) | 20.3 µM (inactive) | 46 µM (inactive) | – | – | –
N=C(N)N/N=C/c1c(-c2ccccc2[N+](=O)[O-])nc2sccn12 | 19.2 µM (inactive) | 18.8 µM (inactive) | 19.1 µM (inactive) | > 100 | 19.4 µM (inactive) | 22 µM (inactive) | 17 µM (inactive) | 42.9 µM (inactive) | 39.3 µM (inactive) | 27.7 µM (inactive) | 11.9 µM (inactive) | 12.6 µM (inactive) | 36.8 µM (inactive) | 14.1 µM (inactive) | 15.8 µM (inactive) | 18.6 µM (inactive) | 29.1 µM (inactive) | 16.1 µM (inactive) | –
O=C(CSCC(=O)N/N=C\c1ccccc1F)N/N=C\c1ccccc1F | > 100 µM (inactive) | > 100 µM (inactive) | 99.5 µM (inactive) | 63.2 | 90.4 µM (inactive) | 41.7 µM (inactive) | 64.6 µM (inactive) | > 100 µM (inactive) | > 100 µM (inactive) | > 100 µM (inactive) | > 100 µM (inactive) | > 100 µM (inactive) | > 100 µM (inactive) | – | 67.3 µM (inactive) | > 100 µM (inactive) | > 100 µM (inactive) | > 100 µM (inactive) | –
CC1(C)OC(=O)C(=Cc2ccc([N+](=O)[O-])s2)C(=O)O1 | 15.4 µM (inactive) | 22.5 µM (inactive) | 56.6 µM (inactive) | 3.18 | 13.2 µM (inactive) | 15.7 µM (inactive) | – | 25.5 µM (inactive) | 13.7 µM (inactive) | 13.4 µM (inactive) | – | – | 10.8 µM (inactive) | – | 15.4 µM (inactive) | 2.4 µM (inactive) | – | 18.9 µM (inactive) | 14.9 µM (inactive)
COC(=O)[C@@]12CCCC(=O)[C@@H]1[C@H]1CCCC[C@H]12 | > 100 µM (inactive) | – | > 100 µM (inactive) | > 100 | 59.2 µM (inactive) | > 100 µM (inactive) | > 100 µM (inactive) | > 100 µM (inactive) | > 100 µM (inactive) | > 100 µM (inactive) | > 100 µM (inactive) | > 100 µM (inactive) | > 100 µM (inactive) | 35.8 µM (inactive) | > 100 µM (inactive) | > 100 µM (inactive) | – | > 100 µM (inactive) | > 100 µM (inactive)
Cc1ccc(S(=O)(=O)NC(=O)C2S(=O)(=O)OCCOS2(=O)=O)cc1 | > 100 µM (inactive) | – | – | – | > 100 µM (inactive) | > 100 µM (inactive) | > 100 µM (inactive) | > 100 µM (inactive) | – | > 100 µM (inactive) | > 100 µM (inactive) | – | 40.8 µM (inactive) | > 100 µM (inactive) | – | > 100 µM (inactive) | – | – | –
O=[N+]([O-])C[C@@]12O[C@]3(O)C4C5CC(C6C5C3C61)C42 (stereo not given in full) | > 100 µM (inactive) | > 100 µM (inactive) | > 100 µM (inactive) | > 100 | > 100 µM (inactive) | > 100 µM (inactive) | > 100 µM (inactive) | > 100 µM (inactive) | > 100 µM (inactive) | > 100 µM (inactive) | > 100 µM (inactive) | > 100 µM (inactive) | > 100 µM (inactive) | > 100 µM (inactive) | > 100 µM (inactive) | > 100 µM (inactive) | > 100 µM (inactive) | > 100 µM (inactive) | –
COC1CC2CCC(C)[C@](O)(O2)C(=O)C(=O)N2CCCCC2C(=O)OC(C(C)CC2CCC(O)C(OC)C2)CC(=O)C(C)C=C(C)C(OC(=O)CN(C)C)C(OC)C(=O)C(C)CC(C)/C=C/C=C/C=C\1C (stereo not given in full) | < 0.01 µM (active) | < 0.01 µM (active) | 6.22 µM (inactive) | 10.4 | < 0.01 µM (active) | < 0.01 µM (active) | 3.94 µM (inactive) | < 0.01 µM (active) | 0.0101 µM (active) | 3.81 µM (inactive) | < 0.01 µM (active) | < 0.01 µM (active) | < 0.01 µM (active) | < 0.01 µM (active) | < 0.01 µM (active) | 5.87 µM (inactive) | < 0.01 µM (active) | 3.67 µM (inactive) | –
COC1CC(n2ccc(=O)[nH]c2=O)OC1CO (stereo not given) | > 100 µM (inactive) | > 100 µM (inactive) | > 100 µM (inactive) | > 100 | > 100 µM (inactive) | > 100 µM (inactive) | > 100 µM (inactive) | > 100 µM (inactive) | > 100 µM (inactive) | > 100 µM (inactive) | – | > 100 µM (inactive) | > 100 µM (inactive) | > 100 µM (inactive) | > 100 µM (inactive) | > 100 µM (inactive) | – | > 100 µM (inactive) | > 100 µM (inactive)

— ChEMBL document CHEMBL1201862, “PubChem BioAssay data set” (2004)
